Laboratory results taken from the NIST ThermoML archive (doi:10.1016/j.tca.2018.11.018).

Experiment: xn = mol fraction of the nth substance listed
Details: 100 kPa, Liquid; for viscosity: Falling or rolling sphere viscometry; for mass density: Vibrating tube method

CCCC[n+]1ccccc1.[Br-] [1-butylpyridinium bromide] + O
Details | mass density [kg/m3] | viscosity [mPa·s]
298.15 K, x1 = 0.03 | 1068.5 | 1.544
298.15 K, x1 = 0.06 | 1118.5 | 2.378
298.15 K, x1 = 0.09 | 1154.8 | 3.424
298.15 K, x1 = 0.13 | 1189.9 | 5.218
298.15 K, x1 = 0.17 | 1214.8 | 8.606
298.15 K, x1 = 0.211 | 1233.8 | 12.22
298.15 K, x1 = 0.25 | 1247.8 | 16.44
298.15 K, x1 = 0.291 | 1259.5 | 24.37
298.15 K, x1 = 0.332 | 1268.9 | 30.3
298.15 K, x1 = 0.377 | 1277.4 | 42.55
303.15 K, x1 = 0.03 | 1066.2 | 1.36
303.15 K, x1 = 0.06 | 1115.6 | 2.067
303.15 K, x1 = 0.09 | 1151.6 | 2.951
303.15 K, x1 = 0.13 | 1186.5 | 4.45
303.15 K, x1 = 0.17 | 1211.3 | 7.401
303.15 K, x1 = 0.211 | 1230.3 | 10.37
303.15 K, x1 = 0.25 | 1244.4 | 13.83
303.15 K, x1 = 0.291 | 1256.1 | 18.59
303.15 K, x1 = 0.332 | 1265.6 | 24.78
303.15 K, x1 = 0.377 | 1274 | 34.24
308.15 K, x1 = 0.03 | 1063.8 | 1.212
308.15 K, x1 = 0.06 | 1112.6 | 1.82
308.15 K, x1 = 0.09 | 1148.3 | 2.575
308.15 K, x1 = 0.13 | 1183 | 3.851
308.15 K, x1 = 0.17 | 1207.8 | 6.345
308.15 K, x1 = 0.211 | 1226.8 | 8.845
308.15 K, x1 = 0.25 | 1240.9 | 11.68
308.15 K, x1 = 0.291 | 1252.7 | 15.55
308.15 K, x1 = 0.332 | 1262.2 | 20.41
308.15 K, x1 = 0.377 | 1270.7 | 27.78
313.15 K, x1 = 0.03 | 1061.2 | 1.089
313.15 K, x1 = 0.06 | 1109.6 | 1.617
313.15 K, x1 = 0.09 | 1145 | 2.268
313.15 K, x1 = 0.13 | 1179.5 | 3.356
313.15 K, x1 = 0.17 | 1204.2 | 5.426
313.15 K, x1 = 0.211 | 1223.3 | 7.548
313.15 K, x1 = 0.25 | 1237.5 | 10.01
313.15 K, x1 = 0.291 | 1249.3 | 13.05
313.15 K, x1 = 0.332 | 1258.8 | 16.97
313.15 K, x1 = 0.377 | 1267.3 | 22.77
318.15 K, x1 = 0.03 | 1058.6 | 0.985
318.15 K, x1 = 0.06 | 1106.4 | 1.447
318.15 K, x1 = 0.09 | 1141.6 | 2.014
318.15 K, x1 = 0.13 | 1176 | 2.954
318.15 K, x1 = 0.17 | 1200.7 | 4.671
318.15 K, x1 = 0.211 | 1219.8 | 6.488
318.15 K, x1 = 0.25 | 1234 | 8.493
318.15 K, x1 = 0.291 | 1245.9 | 11.08
318.15 K, x1 = 0.332 | 1255.4 | 14.29
318.15 K, x1 = 0.377 | 1264 | 18.95
323.15 K, x1 = 0.03 | 1055.7 | 0.897
323.15 K, x1 = 0.06 | 1103.2 | 1.306
323.15 K, x1 = 0.09 | 1138.1 | 1.805
323.15 K, x1 = 0.13 | 1172.4 | 2.617
323.15 K, x1 = 0.17 | 1197.1 | 4.051
323.15 K, x1 = 0.211 | 1216.3 | 5.616
323.15 K, x1 = 0.25 | 1230.5 | 7.331
323.15 K, x1 = 0.291 | 1242.4 | 9.521
323.15 K, x1 = 0.332 | 1252 | 12.17
323.15 K, x1 = 0.377 | 1260.6 | 15.95
328.15 K, x1 = 0.03 | 1052.8 | 0.822
328.15 K, x1 = 0.06 | 1099.9 | 1.185
328.15 K, x1 = 0.09 | 1134.7 | 1.623
328.15 K, x1 = 0.13 | 1168.8 | 2.359
328.15 K, x1 = 0.17 | 1193.5 | 3.564
328.15 K, x1 = 0.211 | 1212.7 | 4.914
328.15 K, x1 = 0.25 | 1227 | 6.394
328.15 K, x1 = 0.291 | 1239 | 8.281
328.15 K, x1 = 0.332 | 1248.6 | 10.52
328.15 K, x1 = 0.377 | 1257.3 | 13.65
333.15 K, x1 = 0.03 | 1049.9 | 0.758
333.15 K, x1 = 0.06 | 1096.5 | 1.081
333.15 K, x1 = 0.09 | 1131.1 | 1.474
333.15 K, x1 = 0.13 | 1165.2 | 2.113
333.15 K, x1 = 0.17 | 1189.9 | 3.178
333.15 K, x1 = 0.211 | 1209.1 | 4.327
333.15 K, x1 = 0.25 | 1223.4 | 5.626
333.15 K, x1 = 0.291 | 1235.5 | 7.256
333.15 K, x1 = 0.332 | 1245.4 | 9.187
333.15 K, x1 = 0.377 | 1253.9 | 11.84
338.15 K, x1 = 0.03 | 1046.6 | 0.704
338.15 K, x1 = 0.06 | 1092.8 | 1.002
338.15 K, x1 = 0.09 | 1127.5 | 1.353
338.15 K, x1 = 0.13 | 1161.5 | 1.912
338.15 K, x1 = 0.17 | 1186.2 | 2.852
338.15 K, x1 = 0.211 | 1205.5 | 3.835
338.15 K, x1 = 0.25 | 1219.9 | 4.96
338.15 K, x1 = 0.291 | 1232 | 6.395
338.15 K, x1 = 0.332 | 1241.8 | 8.064
338.15 K, x1 = 0.377 | 1250.6 | 10.31
343.15 K, x1 = 0.03 | 1043.2 | 0.66
343.15 K, x1 = 0.06 | 1089.5 | 0.92
343.15 K, x1 = 0.09 | 1123.9 | 1.235
343.15 K, x1 = 0.13 | 1157.8 | 1.741
343.15 K, x1 = 0.17 | 1182.6 | 2.367
343.15 K, x1 = 0.211 | 1201.9 | 3.463
343.15 K, x1 = 0.25 | 1216.3 | 4.428
343.15 K, x1 = 0.291 | 1228.5 | 5.687
343.15 K, x1 = 0.332 | 1238.3 | 7.153
343.15 K, x1 = 0.377 | 1247.2 | 9.118
348.15 K, x1 = 0.03 | 1039.8 | 0.618
348.15 K, x1 = 0.06 | 1086 | 0.862
348.15 K, x1 = 0.09 | 1120.1 | 1.139
348.15 K, x1 = 0.13 | 1154.1 | 1.591
348.15 K, x1 = 0.17 | 1178.9 | 2.149
348.15 K, x1 = 0.211 | 1198.3 | 3.138
348.15 K, x1 = 0.25 | 1212.8 | 3.971
348.15 K, x1 = 0.291 | 1225 | 5.06
348.15 K, x1 = 0.332 | 1234.9 | 6.384
348.15 K, x1 = 0.377 | 1243.8 | 8.095
